From BindingDB's records for aid1799744 (Csar, 2012)

molecular target: Mitogen-activated protein kinase 1 (Homo sapiens, UniProt P28482); assay: Assay 1
Sequence (P28482 whole entry): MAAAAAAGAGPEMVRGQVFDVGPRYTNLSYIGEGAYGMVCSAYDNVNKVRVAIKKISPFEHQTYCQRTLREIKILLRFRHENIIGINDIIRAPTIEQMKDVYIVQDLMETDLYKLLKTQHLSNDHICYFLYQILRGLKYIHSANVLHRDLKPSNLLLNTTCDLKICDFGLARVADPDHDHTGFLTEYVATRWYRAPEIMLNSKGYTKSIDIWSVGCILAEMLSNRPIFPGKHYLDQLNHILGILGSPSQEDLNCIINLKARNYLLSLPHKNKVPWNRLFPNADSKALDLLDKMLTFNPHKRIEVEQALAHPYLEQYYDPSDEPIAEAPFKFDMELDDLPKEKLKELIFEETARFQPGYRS

Structure (SMILES)	Ki [nM]
Cc1cnc(Nc2c(C)cccc2Cl)nc1-c1c[nH]c(C(=O)N[C@H](CO)c2ccccc2)c1 [erk000575]	110
Cc1cnc(NCCc2ccccc2)nc1-c1c[nH]c(C(=O)N[C@H](CO)c2ccccc2)c1 [erk000578]	7
Cc1cnc(NCc2ccncc2)nc1-c1c[nH]c(C(=O)N[C@H](CO)c2ccccc2)c1 [erk000579]	776
Cc1cnc(NCc2ccccn2)nc1-c1c[nH]c(C(=O)N[C@H](CO)c2ccccc2)c1 [erk000580]	1120
CCONc1ncc(C)c(-c2c[nH]c(C(=O)N[C@H](CO)c3cccc(Cl)c3)c2)n1 [erk000582]	6
Cc1cnc(NC2CCOCC2)nc1-c1c[nH]c(C(=O)N[C@H](CO)c2cccc(Cl)c2)c1 [erk000584]	8
Cc1ccc(Nc2ncc(C)c(-c3c[nH]c(C(=O)N[C@H](CO)c4cccc(Cl)c4)c3)n2)cc1 [erk000585]	7
Cc1ccc(Nc2ncc(C)c(-c3c[nH]c(C(=O)N[C@H](CO)c4cccc(C)c4)c3)n2)cc1 [erk000586]	2
Cc1cnc(NN2CCCCC2)nc1-c1c[nH]c(C(=O)N[C@H](CO)c2ccccc2)c1 [erk000587]	1
Cc1ccc(-c2csc(Nc3ncc(C)c(-c4c[nH]c(C(=O)N[C@H](CO)c5ccccc5)c4)n3)n2)cc1 [erk000588]	10
Cc1cnc(Nc2cccc3c2OC(F)(F)O3)nc1-c1c[nH]c(C(=O)N[C@H](CO)c2ccccc2)c1 [erk000591]	8
Cc1cnc(NC2Cc3ccccc3C2)nc1-c1c[nH]c(C(=O)N[C@H](CO)c2cccc(Cl)c2)c1 [erk000592]	16
Cc1cnc(Nc2c(F)cccc2F)nc1-c1c[nH]c(C(=O)N[C@H](CO)c2cccc(Cl)c2)c1 [erk000593]	14
N#Cc1c(NCCN2CCCCC2)sc(-c2ccnc(Nc3cccc(O)c3)n2)c1-c1cccc(Cl)c1 [erk000594]	27
Cc1cnc(NOCC(C)C)nc1-c1c[nH]c(C(=O)N[C@H](CO)c2cccc(Cl)c2)c1 [erk000597]	14
CCONc1ncc(C)c(-c2c[nH]c(C(=O)N[C@H](CO)c3cccc(C)c3)c2)n1 [erk000599]	3
Cc1cccc([C@@H](CO)NC(=O)c2cc(-c3nc(NOCC(C)C)ncc3C)c[nH]2)c1 [erk000600]	10
Cc1cccc([C@@H](CO)NC(=O)c2cc(-c3nc(Nc4cccc(F)c4C)ncc3C)c[nH]2)c1 [erk000601]	8
Cc1cccc([C@@H](CO)NC(=O)c2cc(-c3nc(NC4CCOCC4)ncc3C)c[nH]2)c1 [erk000602]	3
Cc1cccc([C@@H](CO)NC(=O)c2cc(-c3nc(Nc4ccccn4)ncc3C)c[nH]2)c1 [erk000603]	9
CC[C@@H](C)Nc1ncc(C)c(-c2c[nH]c(C(=O)N[C@H](CO)c3cccc(C)c3)c2)n1 [erk000604]	76
Cc1cnc(N[C@@H](C)C(C)C)nc1-c1c[nH]c(C(=O)N[C@H](CO)c2cccc(Cl)c2)c1 [erk000605]	6
Cc1cnc(N[C@@H]2CCC[C@H](C)[C@@H]2C)nc1-c1c[nH]c(C(=O)N[C@H](CO)c2cccc(Cl)c2)c1 [erk000606]	13
Cc1cnc(N[C@H](C)C(C)C)nc1-c1c[nH]c(C(=O)N[C@H](CO)c2cccc(Cl)c2)c1 [erk000607]	1
Cc1cnc(N[C@H]2CCC[C@H]2OCc2ccccc2)nc1-c1c[nH]c(C(=O)N[C@H](CO)c2cccc(Cl)c2)c1 [erk000608]	17
Cc1cnc(N[C@H]2CCC[C@@H]2OCc2ccccc2)nc1-c1c[nH]c(C(=O)N[C@H](CO)c2cccc(Cl)c2)c1 [erk000609]	46

Structure (SMILES)	Ki [nM]
Cc1cccc([C@@H](CO)NC(=O)c2cc(-c3nc(N[C@@H]4CCOC4)ncc3C)c[nH]2)c1 [erk000610]	10
Cc1cnc(Nc2ccccn2)nc1-c1c[nH]c(C(=O)N[C@H](CO)c2cccc(Cl)c2)c1 [erk000611]	71
Cc1cnc(N[C@H]2CCC[C@H]2O)nc1-c1c[nH]c(C(=O)N[C@H](CO)c2cccc(Cl)c2)c1 [erk000612]	7
Cc1cnc(N[C@H]2CCC[C@@H]2O)nc1-c1c[nH]c(C(=O)N[C@H](CO)c2cccc(Cl)c2)c1 [erk000613]	35
CCCONc1ncc(C)c(-c2c[nH]c(C(=O)N[C@H](CO)c3cccc(C)c3)c2)n1 [erk000614]	5
CCCONc1ncc(C)c(-c2c[nH]c(C(=O)N[C@H](CO)c3cccc(Cl)c3)c2)n1 [erk000615]	4
COc1cccc(Nc2ncc(C)c(-c3c[nH]c(C(=O)N[C@H](CO)c4ccccc4)c3)n2)c1OC [erk000616]	2
Cc1cccc(Nc2ncc(C)c(-c3c[nH]c(C(=O)N[C@H](CO)c4cccc(Cl)c4)c3)n2)n1 [erk000619]	2
CC[C@@H](COC(C)=O)Nc1ncc(C)c(-c2c[nH]c(C(=O)N[C@H](COC(C)=O)c3cccc(Cl)c3)c2)n1 [erk000620]	229
Cc1cnc(NN2CCCCC2)nc1-c1c[nH]c(C(=O)N[C@H](CO)c2cccc(Cl)c2)c1 [erk000621]	5
COC[C@@H]1CCCN1Nc1ncc(C)c(-c2c[nH]c(C(=O)N[C@H](CO)c3cccc(Cl)c3)c2)n1 [erk000622]	9
Cc1cnc(NC2CCNCC2)nc1-c1c[nH]c(C(=O)N[C@H](CO)c2cccc(Cl)c2)c1 [erk000623]	15
Cc1cnc(NN2CCCC2)nc1-c1c[nH]c(C(=O)N[C@H](CO)c2cccc(Cl)c2)c1 [erk000624]	7
Cc1cccc([C@@H](CO)NC(=O)c2cc(-c3nc(NOCC(F)(F)F)ncc3C)c[nH]2)c1 [erk000625]	4
Cc1cnc(N)nc1-c1c[nH]c(C(=O)NCc2cccc(F)c2)c1 [erk000626]	1260
Cc1cnc(N)nc1-c1c[nH]c(C(=O)NCc2c(Cl)cccc2Cl)c1 [erk000627]	324
Cc1cnc(N)nc1-c1c[nH]c(C(=O)NCc2cc(F)cc(F)c2)c1 [erk000629]	977
COc1cccc(CNC(=O)c2cc(-c3nc(N)ncc3C)c[nH]2)c1 [erk000630]	813
Cc1cnc(N[C@H]2CCOC2)nc1-c1c[nH]c(C(=O)N[C@H](CO)c2cccc(Cl)c2)c1 [erk000631]	209
O=c1[nH][nH]c2cc(Nc3ncc(Nc4ccccc4)c(Nc4cc(C5CC5)[nH]n4)n3)ccc12 [erk000633]	15
CCNc1ncc(C)c(-c2c[nH]c(C(=O)N[C@H](CO)c3cccc(C)c3)c2)n1 [erk000634]	4
CCNc1ncc(C)c(-c2c[nH]c(C(=O)N[C@H](CO)c3cccc(Cl)c3)c2)n1 [erk000635]	4
Cc1cnc(Nc2ccccc2)nc1-c1c[nH]c(C(=O)N[C@H](COC(=O)[C@@H](N)C(C)C)c2ccccc2)c1 [erk000637]	380
Cc1cnc(NCC2CCOCC2)nc1-c1c[nH]c(C(=O)N[C@H](CO)c2ccccc2)c1 [erk000638]	17
Cc1cnc(NCC2CCOCC2)nc1-c1c[nH]c(C(=O)N[C@H](CO)c2cccc(Cl)c2)c1 [erk000639]	17
Cc1cnc(N[C@H]2CCCOC2)nc1-c1c[nH]c(C(=O)N[C@H](CO)c2cccc(Cl)c2)c1 [erk000640]	28

Structure (SMILES)	Ki [nM]
Cc1cnc(NN2CCN(C)CC2)nc1-c1c[nH]c(C(=O)N[C@H](CO)c2cccc(Cl)c2)c1 [erk000641]	20
Cc1cccc([C@@H](CO)NC(=O)c2cc(-c3nc(NC4CCCCC4)ncc3C)c[nH]2)c1 [erk000642]	12
Cc1cnc(NC2CCCCC2)nc1-c1c[nH]c(C(=O)N[C@H](CO)c2cccc(Cl)c2)c1 [erk000643]	4
Cc1cnc(NC2CCCC2)nc1-c1c[nH]c(C(=O)N[C@H](CO)c2cccc(Cl)c2)c1 [erk000644]	2
Cc1cnc(Nc2ccccc2)nc1-c1c[nH]c(C(=O)N[C@H](COC(=O)CN)c2ccccc2)c1 [erk000645]	55
CC(=O)OC[C@@H](NC(=O)c1cc(-c2nc(Nc3ccccc3)ncc2C)c[nH]1)c1ccccc1 [erk000646]	38
Cc1cccc([C@@H](CO)NC(=O)c2cc(-c3nc(NCC(F)(F)F)ncc3C)c[nH]2)c1 [erk000647]	4
Cc1cnc(NN(C)C)nc1-c1c[nH]c(C(=O)N[C@H](CO)c2cccc(Cl)c2)c1 [erk000648]	26
Cc1cnc(NOCc2ccccc2)nc1-c1c[nH]c(C(=O)N[C@H](CO)c2ccccc2)c1 [erk000649]	191
Cc1csc(Nc2ncc(C)c(-c3c[nH]c(C(=O)N[C@H](CO)c4cccc(Cl)c4)c3)n2)n1 [erk000652]	4
Cc1ccc(Nc2ncc(C)c(-c3c[nH]c(C(=O)N[C@H](CO)c4ccccc4)c3)n2)c(C)c1 [erk000653]	3
CCN(CC)c1ccc(Nc2ncc(C)c(-c3c[nH]c(C(=O)N[C@H](CO)c4ccccc4)c3)n2)c(C)c1 [erk000654]	52
Cc1cnc(NO)nc1-c1c[nH]c(C(=O)N[C@H](CO)c2ccccc2)c1 [erk000656]	2340
Cc1cnc(Nc2ccc(Cl)cc2Cl)nc1-c1c[nH]c(C(=O)N[C@H](CO)c2ccccc2)c1 [erk000657]	8
Cc1cnc(Nc2ccc(F)cc2F)nc1-c1c[nH]c(C(=O)N[C@H](CO)c2ccccc2)c1 [erk000658]	2
NS(=O)(=O)c1cccc(Nc2nccc(-c3ccc(O)c(C(=O)O)c3)n2)c1 [erk000659]	229
Cc1cccc([C@@H](CO)NC(=O)c2cc(-c3nc(N[C@H]4CCOC4)ncc3C)c[nH]2)c1 [erk000660]	4
Cc1cnc(NNS(C)(=O)=O)nc1-c1c[nH]c(C(=O)N[C@H](CO)c2cccc(Cl)c2)c1 [erk000661]	3
O=c1[nH][nH]c2cc(Nc3ccc([N+](=O)[O-])c(Nc4cc(C5CC5)[nH]n4)n3)ccc12 [erk000662]	10
Cc1ccccc1CNC(=O)c1cc(-c2ccnc(N)n2)c[nH]1 [erk000663]	1290
Nc1nccc(-c2c[nH]c(C(=O)NCc3cccc(Cl)c3)c2)n1 [erk000664]	525
Cc1cnc(Nc2ccc3ncsc3c2)nc1-c1c[nH]c(C(=O)N[C@H](CO)c2cccc(Cl)c2)c1 [erk000665]	71
CC[C@@H](COC(C)=O)Nc1ncc(C)c(-c2c[nH]c(C(=O)N[C@H](CO)c3cccc(Cl)c3)c2)n1 [erk000666]	6
Cc1cc(N)ccc1Nc1ncc(C)c(-c2c[nH]c(C(=O)N[C@H](CO)c3cccc(Cl)c3)c2)n1 [erk000668]	3
